Results published in ChEMBL document CHEMBL1144808 (J Med Chem, 2008).
Values after ≈ are worked out from the molar mass of the structure shown.

Tests used:
[1] = test system: NCI-H460; assay: Ratio of IC50 for human H460 cells under normoxic condition to hypoxic condition by clonogenic assay; format: functional
[2] = test system: HT-29; assay: Ratio of IC50 for human HT29 cells under normoxic condition to hypoxic condition by clonogenic assay; format: functional
[3] = test system: HT-29; assay: Cytotoxicity against human HT29 cells under normoxic condition after 2 hrs by clonogenic assay; format: functional; conditions: HT-29, 2 h
[4] = Metabolic stability in mouse liver microsomes at 5 uM after 30 mins; format: ADME, Microsome; conditions: read-out: Stability
[5] = Toxicity against human MIAPaCa2-RFP cells xenografted mouse; format: organism-based
[6] = test system: NCI-H460; assay: Cytotoxicity against human H460 cells under hypoxic condition after 2 hrs by Alamar blue staining assay; format: functional, cell-based; conditions: NCI-H460, 2 h
[7] = Aqueous solubility at 100 mg at pH 7.4; format: physicochemical
[8] = test system: Mus musculus; assay: Toxicity against human MIAPaCa2 cells xenografted mouse assessed as survival time at 6 mg/kg, ip administered once daily for 5 days a week for 15 days; format: organism-based, MIA PaCa-2; design: dose 6 mg/kg, route intraperitoneal; conditions: in vivo
[9] = test system: NCI-H460; assay: Cytotoxicity against human H460 cells under hypoxic condition after 2 hrs by clonogenic assay; format: functional; conditions: NCI-H460, 2 h
[10] = test system: HT-29; assay: Cytotoxicity against human HT29 cells under hypoxic condition after 2 hrs by clonogenic assay; format: functional; conditions: HT-29, 2 h
[11] = test system: NCI-H460; assay: Cytotoxicity against human H460 cells under normoxic condition after 2 hrs by clonogenic assay; format: functional; conditions: NCI-H460, 2 h
[12] = test system: NCI-H460; assay: Cytotoxicity against human H460 cells under normoxic condition after 2 hrs by Alamar blue staining assay; format: functional, cell-based; conditions: NCI-H460, 2 h
[13] = test system: NCI-H460; assay: Ratio of IC50 for human H460 cells under normoxic condition to hypoxic condition by Alamar blue staining assay; format: functional
[14] = test system: MIA PaCa-2; assay: Antitumor activity against human MIAPaCa2 cells xenografted mouse assessed as tumor growth inhibition at 30 mg/kg, ip administered once daily for 5 days a week for 15 days; format: functional; conditions: MIA PaCa-2, ip, route intraperitoneal
[15] = test system: Mus musculus; assay: Toxicity against human MIAPaCa2 cells xenografted mouse assessed as survival time at 30 mg/kg, ip administered daily once for 5 days a week for 15 days; format: organism-based, MIA PaCa-2; design: dose 30 mg/kg, route intraperitoneal; conditions: in vivo
[16] = test system: Mus musculus; assay: Toxicity against human MIAPaCa2 cells xenografted mouse assessed as survival time at 200 mg/kg, ip administered weekly once for 3 weeks; format: organism-based, MIA PaCa-2; design: dose 200 mg/kg, route intraperitoneal; conditions: in vivo, 504 h
[17] = test system: MIA PaCa-2; assay: Antitumor activity against human MIAPaCa2 cells xenografted mouse assessed as tumor growth inhibition at 200 mg/kg, ip administered weekly once for 3 weeks; format: functional; conditions: MIA PaCa-2, ip, 504 h, route intraperitoneal

## O=[N+]([O-])c1ccc(COP(=O)(NCCBr)NCCBr)o1
[1]
  Ratio IC50: 40
[2]
  Ratio IC50: 30
[3]
  IC90: 2000 nM
[4]
  remaining at 0.5 h, 5 µM: 79%
[5]
  MTD: 20 mg/kg
[6]
  IC50: 83 nM
[7]
  solubility: 4300 µg/mL (≈ 9.88 mM)
[8]
  Survival: 27 days
[9]
  IC90: 50 nM
[10]
  IC90: 60 nM
[11]
  IC90: 2000 nM
[12]
  IC50: 14000 nM
[13]
  Ratio IC50: 170

## Cn1c(COP(=O)(NCCCl)NCCCl)cnc1[N+](=O)[O-]
[4]
  remaining at 0.5 h, 5 µM: 90%
[6]
  IC50: 210 nM
[12]
  IC50: 88000 nM
[13]
  Ratio IC50: 420

## Cn1c([N+](=O)[O-])cnc1COP(=O)(NCCBr)NCCBr
[4]
  remaining at 0.5 h, 5 µM: 92%
[6]
  IC50: 5700 nM
[12]
  IC50: 46000 nM
[13]
  Ratio IC50: 8

## CN(CCCl)P(=O)(OCc1cnc([N+](=O)[O-])n1C)N(C)CCCl
[4]
  remaining at 0.5 h, 5 µM: 15%
[6]
  IC50: 110 nM
[12]
  IC50: 14000 nM
[13]
  Ratio IC50: 130

## Cn1c(COP(=O)(N(CCCl)CCCl)N(CCCl)CCCl)cnc1[N+](=O)[O-]
[4]
  remaining at 0.5 h, 5 µM: 0%
[6]
  IC50: 120 nM
[12]
  IC50: 27000 nM
[13]
  Ratio IC50: 230

## Cn1c(COP(=O)(NCCBr)NCCBr)cnc1[N+](=O)[O-] [EVOFOSFAMIDE]
[14]
  inhibition in vivo at 30 mg/kg: 41%
[1]
  Ratio IC50: 300
[2]
  Ratio IC50: 200
[3]
  IC90: 40000 nM
[4]
  remaining at 0.5 h, 5 µM: 92%
[5]
  MTD: 100 mg/kg
[6]
  IC50: 19 nM
[7]
  solubility: 5900 µg/mL (≈ 13.1 mM)
[9]
  IC90: 100 nM
[15]
  Survival: 28 days
[10]
  IC90: 200 nM
[11]
  IC90: 30000 nM
[12]
  IC50: 5100 nM
[13]
  Ratio IC50: 270

## Nc1ccn([C@@H]2O[C@H](CO)[C@@H](O)C2(F)F)c(=O)n1 [GEMCITABINE]
[16]
  Survival: 42 days
[17]
  inhibition in vivo at 200 mg/kg: 82%

## Nc1n[n+]([O-])c2ccccc2[n+]1[O-] [TIRAPAZAMINE]
[6]
  IC50: 11000 nM
[12]
  IC50: > 100000 nM
[13]
  Ratio IC50: >9
